The values below come from US12673954B2 (BRISTOL-MYERS SQUIBB COMPANY, priority 2021, dated 2026).

The subject of test [1] is IRF pathway, THP1-Dual™ cells. The test is described as follows: STING reporter assay in THP1-Dual cells, IRF pathway (Lucia luciferase, QUANTI-Luc). The class given is cell-based, human. The following applies: Homo sapiens, THP1-Dual, 20 h, THP1-Dual cells, 10% human plasma, 20 hours; Lucia luciferase; 100% activation = 100 μM cGAMP; read-out: IRF (EC50 μM). Put shortly: (§1)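 THP-1-derived dual-reporter cells treated with serially diluted compounds (final top concentration 100 μM) for 20 h at 37° C. NF-κB read as SEAP via QUANTI-Blue at OD620; IRF read as Lucia luminescence via QUANTI-Luc after 5 min. 100% activation set by 100 μM cGAMP, baseline by DMSO.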

The subject of test [2] is NF-κB pathway, THP1-Dual™ cells. The test can be described thus: STING reporter assay in THP1-Dual cells, NF-κB pathway (SEAP, QUANTI-Blue). The class given is cell-based, human. Particulars: Homo sapiens, THP1-Dual, 20 h, THP1-Dual cells, 10% human plasma, 20 hours; SEAP; 100% activation = 100 μM cGAMP; read-out: NFkB (EC50 μM). The essentials:
as §1
For orientation: Reporter assays use an easily measured gene product as a stand-in for the process of interest.

Broadly, the EC50 is the concentration that produces a half-maximal response. On to `COC(=O)c1cccc2c(Cl)c(CNC(=O)c3cnn4cccnc34)oc12` [EXAMPLE 22, Methyl 3-chloro-2-((pyrazolo[1,5-a]pyrimidine-3-carboxamido)methyl)benzofuran-7-carboxylate], for which the half-maximal effective concentration (EC50) in test [1] was 0.6 µM; in test [2], 0.67 µM.

In the case of `COC(=O)c1ccc(F)c2cc(CNC(=O)c3cnn4cccnc34)oc12` [EXAMPLE 23, methyl 4-fluoro-2-((pyrazolo[1,5-a]pyrimidine-3-carboxamido)methyl)-benzofuran-7-carboxylate], the concentration giving a half-maximal response (EC50) in test [1] came out at 2 µM; in test [2], 1.8 µM.

Turning to `COC(=O)c1ccc(F)c2cc(Cn3cnc4ccncc4c3=O)oc12` [EXAMPLE 25], the EC50 in test [1] turned out to be 10 µM; in test [2], 15 µM.

For the compound `COC(=O)c1ccc(Cl)c2cc(CNC(=O)c3cnn4cccnc34)oc12` [EXAMPLE 26, Methyl 4-chloro-2-((pyrazolo[1,5-a]pyrimidine-3-carboxamido)methyl)benzofuran-7-carboxylate], the concentration giving a half-maximal response (EC50) worked out at 0.63 µM in test [1] and 0.67 µM in test [2].

Take `COC(=O)c1ccc(C)c2cc(CN3CCc4ccncc4C3=O)oc12` [EXAMPLE 28, Methyl 4-methyl-2-((1-oxo-3,4-dihydro-2,7-naphthyridin-2(1H)-yl)methyl)benzofuran-7-carboxylate]: the EC50 came to 3.1 µM in test [1] and 3.6 µM in test [2].

Take `COC(=O)c1ccc(C)c2cc(Cn3cnc4ccncc4c3=O)oc12` [EXAMPLE 29, Methyl 4-methyl-2-((4-oxopyrido[4,3-d]pyrimidin-3(4H)-yl)methyl)benzofuran-7-carboxylate]: the EC50 in test [1] worked out at 3 µM; in test [2] it was 2.9 µM.

For the compound `COC(=O)c1ccc(C)c2cc(CN3Cc4ccncc4C3=O)oc12` [EXAMPLE 30, Methyl 4-methyl-2-((3-oxo-1,3-dihydro-2H-pyrrolo[3,4-c]pyridin-2-yl)methyl)benzofuran-7-carboxylate], the EC50 in test [1] worked out at 27 µM; in test [2], 31 µM.

On to `COC(=O)c1ccc(C)c2cc(CNC(=O)c3cnn4cccnc34)oc12` [EXAMPLE 31, Methyl 4-methyl-2-((pyrazolo[1,5-a]pyrimidine-3-carboxamido)methyl)benzofuran-7-carboxylate], for which the results for the EC50 in test [1] and in test [2] were 1.1 µM and 1.6 µM, respectively.

Regarding `COC(=O)c1ccc(C)c2cc(Cn3ccc4ccncc4c3=O)oc12` [EXAMPLE 32], the EC50 in test [1] was 3.5 µM; in test [2], 3.4 µM.

As for `COC(=O)c1ccc(OC)c2cc(CNC(=O)c3cnn4cccnc34)oc12` [EXAMPLE 33, Methyl 4-methoxy-2-((pyrazolo[1,5-a]pyrimidine-3-carboxamido)methyl)benzofuran-7-carboxylate], the EC50 in test [1] came out at 11 µM; in test [2], 16 µM.

On to `COC(=O)c1ccc(O)c2cc(CNC(=O)c3cnn4cccnc34)oc12` [EXAMPLE 34, Methyl 4-hydroxy-2-((pyrazolo[1,5-a]pyrimidine-3-carboxamido)methyl)benzofuran-7-carboxylate], for which the results for the 50% effective concentration (EC50) in test [1] and in test [2] were 79 µM and greater than 100 µM, respectively.

With `COC(=O)c1cc(F)cc2cc(CNC(=O)c3cnn4cccnc34)oc12` [EXAMPLE 35, Methyl 5-fluoro-2-((pyrazolo[1,5-a]pyrimidine-3 carboxamido)methyl)benzofuran-7-carboxylate], the EC50 in test [1] was determined as 0.53 µM; in test [2] it was 0.77 µM.

For the compound `COC(=O)c1cc(F)cc2cc(CN3CCc4ccncc4C3=O)oc12` [EXAMPLE 36, Methyl 5-fluoro-2-((1-oxo-3,4-dihydro-2,7-naphthyridin-2(1H)-yl)methyl)benzofuran-7-carboxylate], the figures for the EC50 in test [1] and in test [2] were 3.6 µM and 4.1 µM, respectively.

For the compound `COC(=O)c1cc(F)cc2cc(Cn3ccc4ncncc4c3=O)oc12` [EXAMPLE 37, Methyl 5-fluoro-2-((5-oxopyrido[4,3-d]pyrimidin-6(5H)-yl)methyl)benzofuran-7-carboxylate], the EC50 in test [1] worked out at 11 µM; in test [2] it was 12 µM.

In the case of `COC(=O)c1cc(F)cc2cc(Cn3ccc4ccncc4c3=O)oc12` [EXAMPLE 38, Methyl 5-fluoro-2-((1-oxo-2,7-naphthyridin-2(1H)-yl)methyl)benzofuran-7-carboxylate], the EC50 in test [1] was found to be 2.3 µM; in test [2], 2.5 µM.

For `COC(=O)c1cc(F)cc2cc(Cn3cnc4ccncc4c3=O)oc12` [EXAMPLE 39, Methyl 5-fluoro-2-((4-oxopyrido[4,3-d]pyrimidin-3(4H)-yl)methyl)benzofuran-7-carboxylate], the EC50 in test [1] worked out at 4 µM; in test [2] it was 3.6 µM.

For the compound `COC(=O)c1cc(F)cc2cc(CNC(=O)c3cnn4ccc(OC)nc34)oc12` [EXAMPLE 40, Methyl 5-fluoro-2-((5-methoxypyrazolo[1,5-a]pyrimidine-3-carboxamido)methyl)benzofuran-7-carboxylate], the EC50 was 2.1 µM in test [1] and 3.2 µM in test [2].

Turning to `COC(=O)c1cc(F)cc2cc(CNC(=O)c3cnc4cccnn34)oc12` [EXAMPLE 41, Methyl 5-fluoro-2-((imidazo[1,2-b]pyridazine-3-carboxamido)methyl)benzofuran-7-carboxylate], the concentration for a half-maximal effect (EC50) was greater than 33 µM in test [1] and 1.3 µM in test [2].

As to `COC(=O)c1cc(F)cc2cc(CNC(=O)c3cnccn3)oc12` [EXAMPLE 42, Methyl 5-fluoro-2-((pyrazine-2-carboxamido)methyl)benzofuran-7-carboxylate], the half-maximal effective concentration (EC50) came to 4.1 µM in test [1] and 3.6 µM in test [2].

Turning to `COC(=O)c1cc(F)cc2cc(CN3Cc4ccncc4C3=O)oc12` [EXAMPLE 43, Methyl 5-fluoro-2-((3-oxo-1,3-dihydro-2H-pyrrolo[3,4-c]pyridin-2-yl)methyl)benzofuran-7-carboxylate], the half-maximal effective concentration (EC50) in test [1] is 19 µM; in test [2], 24 µM.

Turning to `COC(=O)c1cc(F)cc2cc(CN3Cc4ncncc4C3=O)oc12` [EXAMPLE 44, Methyl 5-fluoro-2-((5-oxo-5,7-dihydro-6H-pyrrolo[3,4-d]pyrimidin-6-yl)methyl)benzofuran-7-carboxylate], the 50% effective concentration (EC50) in test [1] stood at 12 µM; in test [2], 13 µM.

Turning to `COC(=O)c1cc(F)cc2cc(C(C)NC(=O)c3cnn4cccnc34)oc12` (stereo not shown) [EXAMPLE 45, Methyl-5-fluoro-2-(1-(pyrazolo[1,5-a]pyrimidine-3-carboxamido)ethyl)benzofuran-7-carboxylate], the concentration for a half-maximal effect (EC50) in test [1] came out at 0.98 µM; in test [2], 0.99 µM.

On to `COC(=O)c1cc(F)cc2cc([C@H](C)NC(=O)c3cnn4cccnc34)oc12` [EXAMPLE 46, Methyl (S)-5-fluoro-2-(1-(pyrazolo[1,5-a]pyrimidine-3-carboxamido)ethyl)benzofuran-7-carboxylate], for which the 50% effective concentration (EC50) in test [1] and in test [2] was 1.5 µM in each case.

As to `C=Cc1cc(C(=O)OC)c2oc(CNC(=O)c3cnn4cccnc34)cc2c1` [EXAMPLE 100, Methyl 2-((pyrazolo[1,5-a]pyrimidine-3-carboxamido)methyl)-5-vinylbenzofuran-7-carboxylate], the EC50 in test [1] was determined as 2.5 µM; in test [2], 2.2 µM.

For `CCc1cc(C(=O)OC)c2oc(CNC(=O)c3cnn4cccnc34)cc2c1` [EXAMPLE 101, Methyl 5-ethyl-2-((pyrazolo[1,5-a]pyrimidine-3-carboxamido)methyl)benzofuran-7-carboxylate], the EC50 in test [1] stood at 12 µM; in test [2], 10 µM.

Regarding `COC(=O)c1cc(OC)cc2cc(CNC(=O)c3cnn4cccnc34)oc12` [EXAMPLE 102, Methyl 5-methoxy-2-((pyrazolo[1,5-a]pyrimidine-3-carboxamido)methyl)benzofuran-7-carboxylate], the EC50 in test [1] is 2.5 µM; in test [2] it was 3 µM.

Take `COC(=O)c1cc(O)cc2cc(CN3CCc4ccncc4C3=O)oc12` [EXAMPLE 103, Methyl 5-hydroxy-2-((1-oxo-3,4-dihydro-2,7-naphthyridin-2(1H)-yl)methyl)benzofuran-7-carboxylate]: the half-maximal effective concentration (EC50) is 25 µM in test [1] and 23 µM in test [2].

Take `COC(=O)c1cc(O)cc2cc(CN3Cc4ccncc4C3=O)oc12` [EXAMPLE 104, Methyl 5-hydroxy-2-((3-oxo-1,3-dihydro-2H-pyrrolo[3,4-c]pyridin-2-yl)methyl)benzofuran-7-carboxylate]: the concentration for a half-maximal effect (EC50) was 63 µM in test [1] and 37 µM in test [2].

In the case of `COC(=O)c1cc(C#N)cc2cc(CNC(=O)c3cnn4cccnc34)oc12` [EXAMPLE 105, Methyl 5-cyano-2-((pyrazolo[1,5-a]pyrimidine-3-carboxamido)methyl)benzofuran-7-carboxylate], the figures for the EC50 in test [1] and in test [2] were 4.7 µM and 3.4 µM, respectively.

Turning to `COC(=O)c1cc(C(F)(F)F)cc2cc(CNC(=O)c3cnn4cccnc34)oc12` [EXAMPLE 106, Methyl 2-((pyrazolo[1,5-a]pyrimidine-3-carboxamido)methyl)-5-(trifluoromethyl) benzofuran-7-carboxylate], the concentration for a half-maximal effect (EC50) turned out to be 0.75 µM in test [1] and 1.1 µM in test [2].

For the compound `COC(=O)c1c(F)ccc2cc(CNC(=O)c3cnn4cccnc34)oc12` [EXAMPLE 107, Methyl 6-fluoro-2-((pyrazolo[1,5-a]pyrimidine-3-carboxamido)methyl)benzofuran-7-carboxylate], the half-maximal effective concentration (EC50) in test [1] came to 1.4 µM; in test [2] it was 2 µM.

Turning to `COC(=O)c1c(C)ccc2cc(CNC(=O)c3cnn4cccnc34)oc12` [EXAMPLE 108, Methyl 6-methyl-2-((pyrazolo[1,5-a]pyrimidine-3-carboxamido)methyl)benzofuran-7-carboxylate], the EC50 in test [1] stood at 21 µM; in test [2], 31 µM.
